Reference: US12071411B2, “Inhibitors of HIF-2α and methods of use thereof” (ARCUS BIOSCIENCES, INC., priority 2021, dated 2024)
Read-outs that look alike come from different tables or passages of the source.

Legend:
HIF-2α [1] = target: T1, HIF-2α (Homo sapiens, UniProt Q99814); assay: HIF-2α Luciferase Reporter Assay (serum), HRE-luciferase 786-0 cells in 100% human serum; type: cell-based; settings: for IC50: 100% human serum, 786-0 reporter cells, overnight incubation, read-out: Serum Potency
Description: (§1) Generation of HIF-2α Luciferase 786-0 Cell Line:
(§2) Stable cell lines were generated by transducing 786-0 cells (ATCC, CRL-1932) with Cignal Lenti HIF Luc Reporter lentivirus (CLS-007L, Qiagen) according to the manufacturer's guidelines. In brief, 0.3×10^6 786-0 cells were transduced with lentivirus at a multiplicity of infection (MOI) of 25 for 24 hours. After transduction, cells were replenished with fresh RPMI 1640 Medium (Cat. No. 11875085, Thermo Fisher) supplemented with 10% FBS (Cat. No. A3160502, Gibco), 2 mM GlutaMAX™ (Cat. No. 35050-061, Invitrogen) and 100 units of penicillin and 100 μg of streptomycin/mL (Cat. No 15070063, Thermo Fisher) for another 24 hours. Antibiotic selection was performed in cell media containing 4 μg/mL of puromycin. After 7 days of antibiotic selection, stable pools of surviving cells were expanded and used in a luciferase reporter assay.
HIF-2α Luciferase Reporter Assay (Serum):
An HRE-luciferase stable reporter 786-0 cell line was maintained in active culture using RPMI 1640 (GIBCO) media supplemented with 1% penicillin-streptomycin, 1% GlutaMAX™, 10% FBS-One Shot (GIBCO) and 4 ug/ml of puromycin (Invitrogen). On the day of the assay, cells were harvested using StemPro™ Accutase™ cell dissociation reagent (GIBCO) and resuspended at 1.5 million cells per milliliter in Opti-MEM™ (GIBCO). 20 ul/well of the resuspended cells were dispensed into a 384 white tissue culture-treated microplate (Corning) and allowed to incubate at 37° C., 5% CO2 for 3 hours. Compounds were prepared by dispensing 0.8 ul of compound in 100% DMSO into a Greiner plate containing 40 ul/well of 100% human serum (Bioreclamation IVT). After 3 hours, media was removed via centrifugation at 500 RPM for 30 seconds and 30 ul/well of compound diluted in human serum was added. The plate was incubated overnight at 37° C., 5% CO2. The following day, ONE-Glo™ was prepared per vendors instructions. The cell plate was removed from the incubator and the human serum was removed from the plate using centrifugation at 500 RPM for 30 seconds. Following the removal of human serum, 40 ul/well of room temperature Opti-MEM™ was added to the plate and allowed to equilibrate to room temperature for 2 hours. 40 ul/well of ONE-Glo™ reagent was added and allowed to incubate for 10 minutes before reading the luminescence signal on the Envision (PerkinElmer). Data was analyzed using 4-parameter logistic equation to generate IC50.

HIF-2α [2] = target: T1, HIF-2α; assay: HIF-2α Luciferase Reporter Assay (serum free) in HIF-Luc-786-0 cells; type: cell-based; settings: Opti-MEM, 786-0 reporter cells, 20 hours incubation
Description: as §1, §2
HIF-2α Luciferase Reporter Assay (Serum Free):
On day one, 20 uL of HIF-Luc-786-0 cells in Opti-MEM™ (Cat. No. 31985088, Thermo Fisher) were seeded into each well of a 384 well white opaque plate (Corning 3570) and incubated at 37° C. and 5% CO2. Twenty microliters of 2× test compounds in Opti-MEM™ were added to cells after 4 hours of incubation. Final assay conditions comprised 20,000 cells per well in 1% DMSO with test compound concentrations ranging from 50 uM to 0 uM. After 20 hours incubation at 37° C. and 5% CO2, luciferase activity was determined using ONE-Glo™ Luciferase Assay Reagent (E6110, Promega) following the manufacture's recommended procedure. Briefly, 40 uL of ONE-Glo™ luciferase reagents were added to each well and luciferase signals were measured using an Envision 2102 Multilabel Reader. Percentage maximum activity in each test well was calculated based on DMSO (maximum activity) and no cell control wells (baseline activity). The IC50 values of the test compounds were determined from compound dose response curves fitted using a standard four parameter fit equation.

[3] = ratio of IC50 in 100% serum to IC50 in serum free conditions, approximate

T1 sequence (Q99814 whole entry): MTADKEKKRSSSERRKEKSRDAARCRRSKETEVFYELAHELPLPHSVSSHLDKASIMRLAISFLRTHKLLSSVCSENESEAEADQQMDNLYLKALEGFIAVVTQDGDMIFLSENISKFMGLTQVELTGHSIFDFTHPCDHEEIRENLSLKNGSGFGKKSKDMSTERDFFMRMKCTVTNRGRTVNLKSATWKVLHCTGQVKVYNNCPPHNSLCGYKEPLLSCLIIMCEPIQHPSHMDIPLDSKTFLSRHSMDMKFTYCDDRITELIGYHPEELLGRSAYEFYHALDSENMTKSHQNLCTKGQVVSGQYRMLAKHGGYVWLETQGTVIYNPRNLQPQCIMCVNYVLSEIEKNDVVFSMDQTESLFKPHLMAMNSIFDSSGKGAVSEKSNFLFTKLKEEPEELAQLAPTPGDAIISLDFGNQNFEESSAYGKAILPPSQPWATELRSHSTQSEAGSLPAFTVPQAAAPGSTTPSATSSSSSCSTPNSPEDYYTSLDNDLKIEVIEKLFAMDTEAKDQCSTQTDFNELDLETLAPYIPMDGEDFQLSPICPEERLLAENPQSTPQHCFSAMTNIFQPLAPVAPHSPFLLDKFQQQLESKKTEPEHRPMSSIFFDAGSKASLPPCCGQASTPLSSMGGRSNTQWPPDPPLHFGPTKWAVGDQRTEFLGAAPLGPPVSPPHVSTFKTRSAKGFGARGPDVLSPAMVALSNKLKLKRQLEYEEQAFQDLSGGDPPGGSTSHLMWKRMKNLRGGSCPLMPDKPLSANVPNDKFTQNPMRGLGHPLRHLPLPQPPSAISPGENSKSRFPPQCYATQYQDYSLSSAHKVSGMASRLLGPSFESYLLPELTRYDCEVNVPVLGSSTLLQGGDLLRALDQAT

| SMILES | IC50 (HIF-2α [1]) | Serum Shift (approximate) (HIF-2α [1]; [3]) | IC50 (HIF-2α [2]) | Serum Shift (approximate) (HIF-2α [1]) |
| --- | --- | --- | --- | --- |
| O[C@H]1c2c(C(F)(F)F)nn(CCCC(F)(F)F)c2[C@H](F)[C@H]1F [Example 139, (4S,5S,6S)-5,6-difluoro-1-(4,4,4-trifluorobutyl)-3-(trifluoromethyl)-5,6-dihydro-4H-cyclopenta[c]pyrazol-4-ol] | > 1000 nM | 6 | < 100 nM |  |
| CC(CCn1nc(C(F)(F)F)c2c1CCC(F)(F)[C@H]2O)OC(F)F (stereo partly drawn) [Example 15, (4S)-1-[3-(difluoromethoxy)butyl]-5,5-difluoro-3-(trifluoromethyl)-6,7-dihydro-4H-indazol-4-ol] | < 100 nM | 6 | < 100 nM |  |
| O[C@H]1c2c(C(F)(F)F)nn([C@H]3C[C@]4(CC4(F)F)C3)c2CC1(F)F [Example 65, (4S)-5,5-difluoro-1-[(3s,5s)-1,1-difluorospiro[2.3]hexan-5-yl]-3-(trifluoromethyl)-4,6-dihydrocyclopenta[c]pyrazol-4-ol] | > 1000 nM | 11 | 100 to 1000 nM |  |
| O[C@H]1c2c(C(F)(F)F)nn([C@H]3C[C@H](COC(F)F)C3)c2CC1(F)F [Example 102, (4S)-1-[3-(difluoromethoxymethyl)cyclobutyl]-5,5-difluoro-3-(trifluoromethyl)-4,6-dihydrocyclopenta[c]pyrazol-4-ol] | > 1000 nM | 17 | 100 to 1000 nM |  |
| O[C@H]1c2c(C(F)(F)F)nn(-c3ccc(F)cc3)c2CC1(F)F [Example 114, (4S)-5,5-difluoro-1-(4-fluorophenyl)-3-(trifluoromethyl)-4,6-dihydrocyclopenta[c]pyrazol-4-ol] | > 1000 nM |  | 100 to 1000 nM | 27 |
| C[C@H](C#N)CCn1nc(C(F)(F)F)c2c1CCC(F)(F)[C@H]2O [Example 100, (2S)-4-[(4S)-5,5-difluoro-4-hydroxy-3-(trifluoromethyl)-6,7-dihydro-4H-indazol-1-yl]-2-methylbutanenitrile] | > 1000 nM | 4 | 100 to 1000 nM |  |
| CC(C#N)CCn1nc(C(F)(F)F)c2c1CC(F)(F)[C@H]2O (stereo partly drawn) [Example 55, 4-[(4S)-5,5-difluoro-4-hydroxy-3-(trifluoromethyl)-4,6-dihydrocyclopenta[c]pyrazol-1-yl]-2-methylbutanenitrile] | 100 to 1000 nM | 1 | 100 to 1000 nM |  |
| O=S1(=O)CC(Cn2nc(C(F)(F)F)c3c2C[C@@H](F)[C@H]3O)C1 [Example 84, 3-{[(4S,5R)-5-fluoro-4-hydroxy-3-(trifluoromethyl)-1H,4H,5H,6H-cyclopenta[c]pyrazol-1-yl]methyl}-1λ^6-thietane-1,1-dione] | > 1000 nM | 2 | 100 to 1000 nM |  |
| O[C@H]1c2c(C(F)(F)F)nn(CCCOC(F)(F)F)c2CC[C@H]1F [Example 120, (4S,5R)-5-fluoro-1-[3-(trifluoromethoxy)propyl]-3-(trifluoromethyl)-4,5,6,7-tetrahydroindazol-4-ol] | 100 to 1000 nM | 4 | < 100 nM |  |
| O[C@H]1c2c(C(F)(F)F)nn([C@H]3C[C@@]4(CC4(F)F)C3)c2CC1(F)F [Example 64, (4S)-5,5-difluoro-1-[(3r,5r)-1,1-difluorospiro[2.3]hexan-5-yl]-3-(trifluoromethyl)-4,6-dihydrocyclopenta[c]pyrazol-4-ol] | > 1000 nM | 12 | < 100 nM |  |
| CCO[C@H](CCn1nc(C(F)(F)F)c2c1CC(F)(F)[C@H]2O)C(F)(F)F [Example 101, (4S)-1-[(3R)-3-ethoxy-4,4,4-trifluorobutyl]-5,5-difluoro-3-(trifluoromethyl)-4,6-dihydrocyclopenta[c]pyrazol-4-ol] | > 1000 nM | 11 | < 100 nM |  |
| O[C@H]1c2c(C(F)(F)F)nn([C@H]3CCCC(F)(F)C3)c2[C@@H](F)[C@H]1F (single isomer, unassigned) [136/137 DIAST-1] | > 1000 nM | 4 | < 100 nM |  |
